The source of these data is ChEMBL document CHEMBL1129412, “Computation of brain-blood partitioning of organic solutes via free energy calculations” (J Med Chem, 1996).

Molecules are shown by their SMILES.

The Kp is the ratio of the level in a tissue or fluid to that in plasma or blood.

Data set [1] is described as follows: logBB, log(C brain/C blood).
A short description of data set [2]: logBB, log(C brain / C blood).
Data set [3] in a line: The ratio of brain-blood partitioning, (C brain / C blood). It is filed as ADME, tissue-based.

In data set [1] (blood), `CN/C(=N/CCSCc1nc[nH]c1C)NC#N` [CIMETIDINE] gave a Kp of 0.038.

In turn, `CN(C)CCCN1c2ccccc2CCc2ccccc21` [IMIPRAMINE] gave a concentration ratio (Kp) in data set [1] (blood) of 6.76.

`N=C(N)Nc1nc(-c2cccc(N)c2)cs1` had a Kp in data set [1] (brain / blood) of 0.0708.

In data set [2] (brain / blood), `CCCC(C)C` had a Kp of 9.33.

As to `C=COCC(F)(F)F` [FLUROXENE], in data set [2] (blood), the Kp was 1.35.

For the molecule `CC(C)c1nc(-c2ncn3c2CN(C)C(=O)c2c(Cl)cccc2-3)no1`, the Kp in data set [3] was 0.5; in data set [2] (brain / blood), 0.501.

The molecule `CC(=O)Nc1cccc(-c2csc(N=C(N)N)n2)c1` gave a Kp in data set [1] (blood) of 0.0269.

Regarding `O=[N+]([O-])c1c(Cc2ccccc2)c[nH]c1NCCSCc1ccccn1`, the Kp in data set [1] (brain / blood) is 0.759.

In data set [2] (blood), `CCC(C)CC` showed a Kp of 10.2.

In data set [2] (blood), `CCO` [ALCOHOL] had a Kp of 0.692.

For `c1ccccc1` [BENZENE], the partition ratio (Kp) in data set [2] (blood) was 2.34.

Take `c1cc(CN2CCCCC2)cc(OCCCNc2nccs2)c1`: in data set [1] (blood), the Kp was 2.75.

The molecule `FC(F)OC(F)(F)C(F)Cl` (stereo not drawn) showed a Kp in data set [2] (blood) of 1.74.

Regarding `CC1CCCC1` [METHYLCYCLOPENTANE], the Kp in data set [2] (blood) was 8.51.

As for `CN1Cc2c(-c3noc(C(C)(O)CO)n3)ncn2-c2cccc(Cl)c2C1=O` (stereo not drawn), the Kp was 0.015 in data set [3] and 0.0151 in data set [2] (blood).

Take `CCCCCCC` [HEPTANE]: in data set [2] (blood), the Kp was 6.46.

Molecule `COc1cccnc1CCCCNc1ncc(Cc2ccc(C)nc2)c(=O)[nH]1` [ICOTIDINE] had a Kp in data set [1] (blood) of 0.01.

In turn, `O=[N+]([O-])c1cc[nH]c1NCCSCc1ncccc1Br` gave a Kp in data set [1] (brain / blood) of 0.214.

Regarding `CN1Cc2c(-c3noc(C(C)(C)O)n3)ncn2-c2cccc(Cl)c2C1=O`, the Kp was 0.046 in data set [3] and 0.0457 in data set [2] (brain / blood).

Regarding `c1ccc(NCCCOc2cccc(CN3CCCCC3)c2)nc1`, in data set [1] (blood), the Kp is 4.9.

`CC(C)O` [ISOPROPYL ALCOHOL] showed a Kp in data set [2] (blood) of 0.708.

In the case of `N#N` [NITROGEN], the Kp in data set [2] (brain / blood) was 1.07.

`CCC(C)=O` [BUTANONE] had a Kp in data set [2] (blood) of 0.832.

As to `Cc1ccc(Cc2c[nH]c(NCCSCc3ccc(CN(C)C)o3)nc2=O)cn1` [LUPITIDINE], the Kp in data set [1] (brain / blood) is 0.0871.

For `FC(Br)C(F)(F)F` (stereo not drawn), the Kp in data set [2] (blood) is 1.86.

As to `NC(=O)N1c2ccccc2C2OC2c2ccccc21` (stereo not drawn) [CARBAMAZEPINE EPOXIDE], the results for the Kp in data set [3] and in data set [2] (brain / blood) were 0.46 and 0.457, respectively.

On to `CCCCC` [PENTANE], for which the Kp in data set [2] (brain / blood) is 5.75.

On to `FC(F)(F)CCl`, for which the Kp in data set [2] (brain / blood) was 1.2.

For the molecule `CN(C)Cc1ccnc(-c2cccc(Nc3[nH]ccc3[N+](=O)[O-])c2)c1`, in data set [1] (blood), the Kp is 0.525.

In turn, `CN(C)Cc1ccc(-c2cccc(Nc3[nH]ccc3[N+](=O)[O-])c2)o1` gave a Kp in data set [2] (brain / blood) of 0.537.

Molecule `NC(N)=Nc1nc(-c2ccccc2)cs1` had a Kp in data set [1] (brain / blood) of 0.661.

In turn, `O=C(NCCCOc1cccc(CN2CCCCC2)c1)c1ccccc1` gave a Kp in data set [1] (blood) of 0.575.

Molecule `CC(=O)NCCCOc1cccc(CN2CCCCC2)c1` had a Kp in data set [1] (blood) of 0.347.

Molecule `CN(C)Cc1ccc(CSCCNc2[nH]ccc2[N+](=O)[O-])o1` showed a Kp in data set [1] (brain / blood) of 0.0759.

In data set [1] (brain / blood), `CN(C)c1cc(-c2n[nH]c(N)n2)ccn1` gave a Kp of 0.0676.

For the molecule `CN(C)Cc1ccc(CSCCNc2ncc(Cc3ccc4ccccc4c3)c(O)n2)o1`, the partition ratio (Kp) in data set [1] (brain / blood) is 0.0501.

`CC(C)CO` [ISOBUTANOL]: in data set [2] (brain / blood), the Kp was 0.676.

In data set [1] (blood), `Cc1csc(N=C(N)N)n1` showed a Kp of 0.912.

Turning to `CCCC(C)CC` (stereo not drawn), in data set [2] (blood), the Kp was 7.94.

`ClC=C(Cl)Cl` [TRICHLOROETHYLENE] had a Kp in data set [2] (blood) of 2.19.

`CN(C)Cc1ccc(CSCCNc2[nH]cc(Cc3ccccc3)c2[N+](=O)[O-])o1` gave a Kp in data set [1] (blood) of 0.186.

In the case of `FC(F)OC(Cl)C(F)(F)F` (stereo not drawn) [ISOFLURANE], the Kp in data set [2] (blood) is 2.63.

`CCCCCC` [HEXANE]: in data set [2] (blood), the Kp was 6.31.

Consider `NC(=O)N1c2ccccc2C=Cc2ccccc21` [CARBAMAZEPINE], for which the partition ratio (Kp) in data set [3] and in data set [2] (blood) was 1 each time.

For the molecule `C/N=C(\NC#N)Nc1cccc(-c2csc(N=C(N)N)n2)c1`, the Kp in data set [1] (brain / blood) was 0.0288.

In turn, `Cc1ccccc1` [TOLUENE] gave a Kp in data set [2] (blood) of 2.34.

The molecule `CC(Cl)(Cl)Cl` [TRICHLOROETHANE] gave a Kp in data set [2] (blood) of 2.51.

Molecule `C` [METHANE] had a partition ratio (Kp) in data set [2] (brain / blood) of 1.1.

With `CN(C)CCC=C1c2ccccc2CCc2ccccc21` [AMITRIPTYLINE], the concentration ratio (Kp) in data set [3] was 9.6.

`CCC(C)(C)C` had a Kp in data set [2] (brain / blood) of 11.

Molecule `CC/N=C(\NC#N)NCCSCc1ncccc1Br` had a Kp in data set [1] (blood) of 0.00708.

Consider `COc1ccc(CN(CCN(C)C)c2ccccn2)cc1` [PYRILAMINE], for which the partition ratio (Kp) in data set [1] (blood) is 3.09.

Molecule `FC(F)(F)C(Cl)Br` (stereo not drawn) [HALOTHANE] showed a Kp in data set [2] (blood) of 2.24.
